# According to patent US20170071975A1, “COMPOSITIONS AND METHODS FOR TREATING DEPRESSIVE DISORDERS” (Steerwasher, LLC, priority 2014, published 2017):
# Experiments:
# [1] = system: patients with treatment-resistant depression; assay: Blinded, randomized placebo-controlled crossover trial; 21-point Hamilton Depression Rating Scale (HDRS/HRDS); format: in vivo, human
# Excerpt: (§1) Primary endpoint was the change on the 21-point Hamilton Depression Rating Scale (HRDS).
# (§2) This study was designed as a randomized, placebo-controlled crossover pilot clinical trial. […] The order of the session was randomly assigned by a random number generator. Other than the gas mixture administered, both sessions were indistinguishable from each other in setting, setup, and monitoring.
# Patients were recruited from an existing database of treatment-resistant depression patients administered by the Washington University Department of Psychiatry as well as from the “Volunteers for Health” patient pool within the Washington University School of Medicine. […] Patients were instructed not to suspend their standard of care treatment for major depression. Patients were required to maintain a stable medication regiment without changes for 4 weeks prior to initiation of the study and continue on the same dose throughout.
# (§3) The gas mix was administered via a standard anesthesia facemask through tubing connected to an anesthesia machine. A small sample connector line was inserted into the facemask allowing the measurement of inhaled and exhaled gas concentrations. Total gas flow was between 4-8 L/min. Patients were monitored during and after the treatment according to American Society of Anesthesiologists standard which includes continuous 3-lead ECG, pulsoximetry, non-invasive blood pressure and end-tidal CO2 under the supervision of an attending-level anesthesiologists. After the one-hour treatment session, patients were transferred and monitored for 2 hours. A study team physician determined if the patients met criteria for discharge before patients were discharged.
# (§4) Outcomes were assessed at six time points for each patient (three per session; two sessions): within each session at baseline, 2 hours, and 24 hours after treatment. Primary study endpoint was the change on the 21-point Hamilton Depression Rating Scale (HDRS). Secondary endpoints included a change on the Quick Inventory of Depressive Symptoms Self Report (QIDS-SR) scale. At baseline, the Brief Psychiatric Rating Scale (BPRS) was also administered. Psychiatric safety endpoints were assessed via standard scales for psychosis and the Columbia suicide scale. Other safety endpoints included cardiovascular, respiratory and central nervous system adverse events determined by hemodynamic and respiratory monitoring.
# The primary outcome was analyzed with a mixed effects repeated measures linear model that included three interactions (treatment; time; randomization group) using restricted maximum likelihood estimation.
# For the analysis of paired data, such as the levels of HRDS, we used the Wilcoxon signed-rank test. To compare the rates of treatment responses and remissions between the two treatments and using the paired data structure, an exact binomial test was used (and corresponding odds ratios calculated) as the number of discordant pairs was <20. Data are presented as mean±SD or 95% confidence intervals, or as median and interquartile range. Because this is the first in-human patient pilot study, no prior knowledge existed for adequate sample size determination. […] JMP Pro 11.1 and SAS 9.3 (SAS Institute, Cary, N.C.), as well as Prism 6.04 (GraphPad Software, Inc., La Jolla, Calif.) were used for the statistical analysis and graphing.
# [2] = system: patients with treatment-resistant depression; assay: Same crossover trial; Quick Inventory of Depressive Symptoms Self Report (QIDS-SR) scale; format: in vivo, human; conditions: Table 4
# Protocol: as §1, §2, §3, §4
# [3] = system: patients with treatment-resistant depression; set-up: species or system human; conditions: in vivo
# Protocol: as §3
# as §4, with “monitoring. Nitrous oxide-induced inactivation of vitamin B12 was determined by measurement of plasma total homocysteine before and after treatment.” for “monitoring.”
# [4] = 24 hours after treatment, HRDS levels
compound,measurement,setting,value
[N-]=[N+]=O [nitrous oxide],"Change in Level of Depression Severity: Better, 1 level (patients)",[1]; [4],7/20
same,"Change in Level of Depression Severity: Better, 1 level (percent)",[1]; [4],(35%)
same,"Change in Level of Depression Severity: Better, 2 levels (patients)",[1]; [4],3/20
same,"Change in Level of Depression Severity: Better, 2 levels (percent)",[1]; [4],(15%)
same,"Change in Level of Depression Severity: Better, 3 levels (patients)",[1]; [4],3/20
same,"Change in Level of Depression Severity: Better, 3 levels (percent)",[1]; [4],(15%)
same,"Change in Level of Depression Severity: Better, 4 levels (patients)",[1]; [4],1/20
same,"Change in Level of Depression Severity: Better, 4 levels (percent)",[1]; [4],(5%)
same,"Change in Level of Depression Severity: Neutral, 0 (patients)",[1]; [4],6/20
same,"Change in Level of Depression Severity: Neutral, 0 (percent)",[1]; [4],(30%)
same,"Change in Level of Depression Severity: Worse, 1 level (patients)",[1]; [4],0
same,mean change in HDRS score,"[1]; 24 hours after treatment, full cohort (20 patients), 50% nitrous oxide/50% oxygen for 1 hour, compared to baseline and placebo",−5.5 points
same,full remission rate (HRDS <7 points),"[1]; 24 hours, 20 patients",15%
same,treatment response rate (reduction >50% on the HRDS),"[1]; 24 hours, 20 patients",20%
same,mean reduction of HRDS,"[1]; 24 hours, first treatment session only (10 patients who received nitrous oxide first)",−8.6 points
same,patients with at least a 2-level improvement of depression severity on the HRDS,"[1]; 24 hours, out of twenty patients, five severity levels",7 patients
same,"patients with at least a 2-level improvement of depression severity on the HRDS, percent","[1]; 24 hours, twenty patients",35%
same,duration of antidepressant effects,"[1]; after a single, one-hour treatment with 50% nitrous oxide",at least 24 hours
same,mean reduction in depressive symptoms on HRDS,[1]; full cohort,5.5 points
same,mean reduction in depressive symptoms on HRDS,[1]; ten patients who received the nitrous oxide treatment first,8.6 points
same,response on the QIDS scale: change 0 (percent),[2],50%
same,"response on the QIDS scale: change of 1 level, first arrow (P00003, presumably worse) (percent)",[2],10%
same,"response on the QIDS scale: change of 1 level, second arrow (P00004, presumably better) (percent)",[2],15%
same,"response on the QIDS scale: change of 2 levels, second arrow (P00004, presumably better) (percent)",[2],25%
same,Adverse Event: Anxiety,"[3]; human, 1 h",2
same,Adverse Event: Anxiety (percent),"[3]; human, 1 h",(10%)
same,Adverse Event: Claustrophobia,"[3]; human, 1 h",1 no.
same,Adverse Event: Claustrophobia (percent),"[3]; human, 1 h",(5%)
same,Adverse Event: Dizziness/Lightheadedness,"[3]; human, 1 h",1 no.
same,Adverse Event: Dizziness/Lightheadedness (percent),"[3]; human, 1 h",(5%)
same,Adverse Event: Headache,"[3]; human, 1 h",2 no.
same,Adverse Event: Headache (percent),"[3]; human, 1 h",(10%)
same,Adverse Event: Hypercapnia,"[3]; human, 1 h",0
same,Adverse Event: Hyperventilation,"[3]; human, 1 h",1 no.
same,Adverse Event: Hyperventilation (percent),"[3]; human, 1 h",(5%)
same,Adverse Event: Nausea and vomiting,"[3]; human, 1 h",3 no.
same,Adverse Event: Nausea and vomiting (percent),"[3]; human, 1 h",(15%)
same,Adverse Event: Numbness/Paresthesia,"[3]; human, 1 h",2
same,Adverse Event: Numbness/Paresthesia (percent),"[3]; human, 1 h",(10%)
same,Adverse Event: Panic Attack,"[3]; human, 1 h",1
same,Adverse Event: Panic Attack (percent),"[3]; human, 1 h",(5%)
same,Adverse Event: Regurgitation,"[3]; human, 1 h",1 no.
same,Adverse Event: Regurgitation (percent),"[3]; human, 1 h",(5%)
same,course of adverse events,[3],temporary and resolved shortly after completion
same,patients in whom the treatment had to be interrupted or discontinued due to adverse events,[3],five
same,patients who completed the full 60-minute treatment,[3],Fifteen
same,"psychotomimetic side effects (delusion, hallucination)",[3],appeared to be devoid of psychotomimetic side effects
